Drawing on patent publication EP4741391A1, “NMT INHIBITOR, AND PREPARATION METHOD THEREFOR AND USE THEREOF” (Nanjing Synnocare Pharmaceutical Technology Co., Ltd., priority 2023, dated 2025), this text covers IC50 for eleven molecules.

Structures are written as SMILES.

Test [1] concerns MV-4-11 cells. Put plainly: Anti-proliferative activity against MV-4-11 cells (three-day cell viability chemiluminescence). It counts as cell-based. The note with it: Homo sapiens, MV4-11, 72 h, MV-4-11 human monocytic leukemia cells, three days of exposure. The procedure: This study utilized a cell proliferation assay to analyze the cytotoxicity of MV-4-11 human monocytic leukemia cells after three days of exposure to NMT1 inhibitors. The MV-4-11 cell line was purchased from Nanjing Cobuilder Biotechnology Co., Ltd., and cultured in IMDM medium (Viva cell) in an incubator (Thermo) at 37 °C with 5% CO2. In this experiment, NMT1 inhibitors were dissolved in DMSO to obtain 600 µM stock solutions. Dose-response solutions were prepared with a top endpoint compound concentration of 3 µM, followed by three-fold serial dilutions in DMSO, totaling eight data points. The final concentration of DMSO was 0.5%.
MV-4-11 cells were seeded into a white 96-well plate, 80 µL of cell suspension per well, containing 6000 MV-4-11 cells. The cell plate was placed in the CO2 incubator for overnight culture. Then, 20 µL of NMT1 inhibitor solutions at different concentrations were added to the wells. The 96-well plate was placed back into the incubator for three days. Another cell plate was prepared, and the signal was read on the day of drug addition to serve as the maximum value (Max value in the equation below) for data analysis. To this cell plate, 25 µL of cell viability chemiluminescence detection reagent was added per well, followed by incubation at room temperature for 10 minutes to stabilize the luminescence signal. A multi-label analyzer was used for reading.
The raw data were converted into inhibition rates using the equation (Sample - Min) / (Max - Min) * 100%. The IC50 values were then determined by fitting a four-parameter curve (using the "log(inhibitor) vs. response - Variable slope" model in GraphPad Prism). Min: wells treated with 0.5% DMSO; Max: Day 0 wells. Table 1 provides the inhibitory activity of the compounds of the invention on MV-4-11 cell proliferation. Table 1: Compound Inhibitory Activity against NMT1 Enzyme (IC50) and Anti-proliferative Activity against MV-4-11 Cells (IC50)

The target in test [2] is T1, NMT1 enzyme (Homo sapiens, UniProt P30419).
T1 sequence (P30419 1-496): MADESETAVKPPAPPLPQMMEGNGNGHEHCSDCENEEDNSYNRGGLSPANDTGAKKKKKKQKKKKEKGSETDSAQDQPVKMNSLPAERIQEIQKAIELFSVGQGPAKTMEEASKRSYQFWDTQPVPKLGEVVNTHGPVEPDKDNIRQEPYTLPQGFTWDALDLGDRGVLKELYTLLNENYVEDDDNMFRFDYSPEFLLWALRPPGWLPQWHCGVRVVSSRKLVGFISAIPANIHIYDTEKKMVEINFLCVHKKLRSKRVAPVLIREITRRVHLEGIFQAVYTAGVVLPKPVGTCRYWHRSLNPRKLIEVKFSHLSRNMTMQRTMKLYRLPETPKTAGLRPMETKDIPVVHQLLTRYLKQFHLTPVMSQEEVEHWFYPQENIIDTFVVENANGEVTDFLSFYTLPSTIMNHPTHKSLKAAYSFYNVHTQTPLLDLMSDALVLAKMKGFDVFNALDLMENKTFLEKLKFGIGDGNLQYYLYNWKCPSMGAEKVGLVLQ
Put plainly: Inhibitory activity on NMT1 enzyme catalysis (fluorescence intensity, CPM probe). It counts as biochemical. The following applies: 6 nM NMT1 enzyme, 1.25 µM myristoyl-CoA, 20 µM HSPP60 SRC peptide, 45 minutes at 25 °C. Here is the method:
This study evaluated the ability of the compounds of the invention to inhibit NMT1 catalytic activity in vitro. The experiment used a FI (Fluorescence Intensity) analysis method, characterizing NMT1 inhibitors under conditions of 1.25 µM myristoyl-CoA (Lithium salt, Sigma, M4414). In this experiment, a synthesized peptide with the sequence H-Gly-Ser-Asn-Lys-Ser-Lys-Pro-Lys-NH2, HSPP60SRC (Nanjing Peptide Industry, NJP23953), was used as the reaction substrate. The final concentration of the NMT1 enzyme was 6 nM, the final concentration of CPM (Reactive thiol fluorescence probe, Invitrogen, D346) was 1 µM, the final concentration of HSPP60 SRC was 20 µM, and the final concentration of DMSO was 0.5%.
Compounds were dissolved in DMSO to obtain 10 mM stock solutions. Dose-response solutions were prepared with a top endpoint compound concentration of 3 mM, followed by three-fold serial dilutions in DMSO, totaling ten data points. Using an ECHO acoustic liquid handler (BECKMAN, ECHO 655 system), 0.05 µL of the diluted compound solutions was transferred to a 384-well assay plate (Corning, CLS4514). Then, 2.5 µL of the NMT1 enzyme working solution was added to the 384-well assay plate, followed by incubation at 25 °C for 10 minutes. Subsequently, 5 µL of the CPM and myristoyl-CoA working solution was added, the plate was centrifuged at 1000 rpm for 1 minute, and then 2.5 µL of the HSPP60 SRC working solution was added to initiate the reaction. The reaction was incubated at 25 °C for 45 minutes. The FI signal ([…]; ex: 405 nm) was detected using an HTS high-throughput screening multifunctional microplate reader (BMG, PHERA star FSX).
The inhibition rate of the compounds on NMT1 enzyme catalytic activity was calculated using the following formula: Inhibition Percentage (%) = 100 * (Mean of DMSO group - Mean of Compound group) / (Mean of DMSO group - Mean of Blank control group). The IC50 curve of the compounds was fitted using the software XLfit 5.5.0 according to the nonlinear regression equation. Table 1 provides the inhibitory activity of the compounds of the invention on NMT1 enzyme catalysis.

Turning to `CCN(CC)C(=O)c1nn(C)c(C)c1CCOc1cc(Cl)ccc1-c1ccn2ncc(CN(C)C)c2c1` [Compound 20, 4-{2-[(5-chloro-2-{3-[(dimethylamino)methyl]pyrazolo[1,5-a]pyridin-5-yl}phenyl)oxy]ethyl}-N,N-diethyl-1,5-dimethylpyrazole-3-carboxamide], the values for the IC50 in test [1] and in test [2] were 23.5 nM and 2.76 nM, respectively. Turning to `CNCc1cnn2ccc(-c3ccc(F)c(F)c3OCCc3c(CF)nn(C)c3C)cc12` [Compound 26, 5-[3,4-difluoro-2-({2-[3-(fluoromethyl)-1,5-dimethylpyrazol-4-yl]ethyl}oxy)phenyl]-3-[(methylamino)methyl]p yrazolo[1,5-a]pyridine], the IC50 was determined as 12.3 nM in test [1] and 2.48 nM in test [2]. Turning to `CCc1nn(C)c(C)c1CCOc1cc(Cl)ccc1-c1ccn2ncc(CN(C)C)c2c1` [Compound 15, 5-(4-chloro-2-{[2-(3-ethyl-1,5-dimethylpyrazol-4-yl)ethyl]oxy}phenyl)-3-[(dimethylamino)methyl]pyrazolo[1,5-a]pyridine], the IC50 in test [1] amounted to 20.7 nM; in test [2], 2.34 nM. The matching figures for `Cc1c(CCOc2c(F)cc(F)cc2-c2ccn3ncc(CN(C)C)c3c2)c(C(=O)N(C)C)nn1C` [Compound 10, 4-{2-[(6-{3-[(dimethylamino)methyl]pyrazolo[1,5-a]pyridin-5-yl}-2,4-difluorophenyl)oxy]ethyl}-1,5,N,N-tetram ethylpyrazole-3-carboxamide]: 26.4 nM and 2.59 nM. The matching figures for `Cc1nn(C)c(C)c1CCOc1cc(Cl)ccc1-c1ccn2ncc(CN(C)C)c2c1` [Compound 14, 5-(4-chloro-2-{[2-(1,3,5-trimethylpyrazol-4-yl)ethyl]oxy}phenyl)-3-[(dimethylamino)methyl]pyrazolo[1,5-a]pyridine]: 18.4 nM and 1.98 nM. In test [2], `CNCc1cnn2ccc(-c3ccc(F)c(F)c3OCCc3c(C(C)O)nn(C)c3C)cc12` (stereo not shown) [Compound 31, 1-(4-{2-[(2,3-difluoro-6-{3-[(methylamino)methyl]-pyrazolo[1,5-a]pyridin-5-yl}phenyl)oxy]ethyl}-1,5-dimethylpyrazol-3-yl)ethan-1-ol] came in with an IC50 of 1.82 nM. In the case of `CNCc1cnn2ccc(-c3ccc(F)c(F)c3OCCc3c(C(C)(C)O)nn(C)c3C)cc12` [Compound 29, 2-(4-{2-[(2,3-difluoro-6-{3-[(methylamino)methyl]-pyrazolo[1,5-a]pyridin-5-yl}phenyl)oxy]ethyl}-1,5-dimethylpyrazol-3-yl)propan-2-ol], it took 1.7 nM to reach half-maximal inhibition in test [2] (IC50). On the same count and under the same terms, with `CNCc1cnn2ccc(-c3ccc(F)c(F)c3OCCc3c(C(O)C(C)C)nn(C)c3C)cc12` (stereo not shown) [Compound 32, 1-(4-{2-[(2,3-difluoro-6-{3-[(methylamino)methyl]pyrazolo[1,5-a]pyridin-5-yl}phenyl)oxy]ethyl}-1,5-dimethylpyrazol-3-yl)-2-methylpropan-1-ol] the figure was 1.71 nM. Same read-out and setting: the result for `CNCc1cnn2ccc(-c3ccc(F)cc3OCCc3c(C(O)C(C)(C)C)nn(C)c3C)cc12` (stereo not shown) [Compound 34, 1-(4-{2-[(5-fluoro-2-{3-[(methylamino)methyl]pyrazolo[1,5-a]pyridin-5-yl}phenyl)oxy]ethyl}-1,5-dimethylpyrazol-3-yl)-2,2-dimethylpropan-1-ol] reads 1.93 nM; that for `CNCc1cnn2ccc(-c3ccc(F)cc3OCCc3c(C(O)C(C)C)nn(C)c3C)cc12` (stereo not shown) [Compound 36, 1-(4-{2-[(5-fluoro-2-{3-[(methylamino)methyl]pyrazolo[1,5-a]pyridin-5-yl}phenyl)oxy]ethyl}-1,5-dimethylpyrazol-3-yl)-2-methylpropan-1-ol], 1.96 nM; that for `CNCc1cnn2ccc(-c3ccc(F)c(F)c3OCCc3c(C(O)C(C)(C)C)nn(C)c3C)cc12` (stereo not shown) [Compound 30, 1-(4-{2-[(2,3-difluoro-6-{3-[(methylamino)methyl]-pyrazolo[1,5-a]pyridin-5-yl}phenyl)oxy]ethyl}-1,5-dimethylpyrazol-3-yl)-2,2-dimethylpr opan-1-ol], 1.62 nM.
